Test results as given in patent US10781229B2, “Tris- or neopentyl glycol-based amphiphiles and uses thereof” (Industry-University Cooperation Foundation Hanyang …, priority 2015, dated 2020).
Values belong to the compound of their own block, whether it stands above or below them.

Experiments:
[1] = Hydrodynamic radius and size distribution of micelles by dynamic light scattering (DLS); type: physicochemical
Protocol: A method of measuring the radius of a micelle is not specifically limited and may be any method generally known in the art. For example, the radius may be measured by a dynamic light scattering (DLS) experiment.
In particular, critical micellar concentrations (CMCs) were measured using hydrophobic fluorescence staining and diphenylhexatriene (DPH), and hydrodynamic radii (Rh) of micelles formed of each material were measured by a dynamic light scattering (DLS) experiment. Measured results are compared to values of DDM as an existing amphipathic molecule (detergent).
Meanwhile, size distributions of the micelles formed of TDTs and NDTs were measured using DLS. Results are illustrated in FIG. 5. TDTs or NDTs were respectively used in an amount of 0.5% by weight. As a result, micelles of TDTs or NDTs were measured as forming a single community.

[2] = target: T1, melibiose permease (MelB), MelBSt (Salmonella typhimurium, UniProt P30878); assay: MelB extraction efficiency and stability by SDS-PAGE and western immunoblotting; conditions: 1.5% by weight; for MelB protein solubilization effect versus temperature: 0 to 45° C. and above; for MelB protein extraction efficiency from membrane: 0° C.
T1 construct: made in house; host or cells: 'Salmonella typhimurium DW2 cell (melB and lacZY)', plasmid pK95AHB/WT MelBSt/CH10
T1 sequence (P30878 whole entry): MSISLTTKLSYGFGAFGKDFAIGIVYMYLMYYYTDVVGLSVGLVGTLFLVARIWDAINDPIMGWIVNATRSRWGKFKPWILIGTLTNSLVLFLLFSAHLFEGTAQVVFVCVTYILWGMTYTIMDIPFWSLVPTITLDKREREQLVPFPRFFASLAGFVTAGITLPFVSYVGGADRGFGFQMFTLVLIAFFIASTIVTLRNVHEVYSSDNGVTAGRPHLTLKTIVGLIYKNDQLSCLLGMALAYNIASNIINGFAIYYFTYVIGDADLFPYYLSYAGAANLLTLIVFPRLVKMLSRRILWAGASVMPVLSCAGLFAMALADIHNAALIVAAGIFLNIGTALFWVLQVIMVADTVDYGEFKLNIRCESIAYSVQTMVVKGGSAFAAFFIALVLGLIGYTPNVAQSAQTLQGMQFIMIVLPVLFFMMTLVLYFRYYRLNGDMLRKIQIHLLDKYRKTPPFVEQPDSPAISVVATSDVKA
Protocol: Experiments to measure the extraction efficiency and structural stability of a Salmonella typhimurium melibiose permease (MelB) protein by TDTs or NDTs were conducted. The MelB protein was extracted using TDTs, NDTs, or DDM and then the amounts and structures of extracted proteins were quantitatively analyzed by SDS-PAGE and western immunoblotting. The concentrations of the used amphipathic molecules were 1.5% by weight. Protein extraction was carried out at four temperatures (0, 45, 55 or 65° C.) for 90 minutes to simultaneously evaluate the protein extraction efficiency and stabilization ability of the amphipathic molecules.
In particular, in accordance with a method disclosed in a paper (P. S. Chae, et al., Chemistry. 2013, 19, 15645-15651) published by the present inventors, a protein (MelBSt) was produced using a pK95AHB/WT MelBSt/CH10 plasmid and a Salmonella typhimurium DW2 cell (melB and lacZY) to encode wild-type MelB having a 10-His tag at a C-terminal. In accordance with a method disclosed in a paper (Nat. Commun. 2014, 5, 3009) published by A. S. Ethayathulla, et al., cell proliferation and membrane preparation was carried out. Protein analysis was performed using a Micro BCA kit (Thermo Scientific, Rockford, Ill.). So as to measure the solubilization/stability of MelBSt, a membrane sample including MelBSt (final protein concentration of 10 mg/mL) was mixed with a solubilization buffer (20 mM sodium phosphate, pH 7.5, 200 mM NaCl, 10% glycerol, and 20 mM melibiose) and 1.5% (w/v) DDM, TDTs or NDTs. An extracted product was incubated at four temperatures (0, 45, 55 and 65° C.) for 90 minutes. Ultracentrifugation was carried out for 45 minutes at 4° C. and 355,590 g by means of a Beckman Optima™ MAX ultracentrifuge and a TLA-100 rotor. Subsequently, 20 μg of a protein was separated by SDS-16% PAGE and then subjected to immunoblotting with a Penta-His-HRP antibody (Qiagen, Germantown, Md.).

[3] = test system: leucine transporter (LeuT); assay: LeuT stability by [3H]-Leu scintillation proximity assay (SPA); type: biochemical, Aquifex aeolicus; conditions: CMC+0.2% by weight, room temperature
Protocol: Experiments to measure the structural stability of a leucine transporter (LeuT) protein by TDTs or NDTs were conducted. LeuT protein activity was measured by scintillation proximity assay (SPA) utilizing [^3H]-Leu as a ligand. The concentration of TDTs, NDTs, or DDM was (a) CMC+0.04% by weight, or (b) CMC+[…].
In particular, the LeuT stability measurement experiments were conducted according to the following methods. Depending upon the results of UapA and MelB, only TDT-C11, TDT-C12, NDT-C10, NDT-C11 and NDT-C12 among the amphipathic molecules according to the present invention were selectively used. In accordance with a method disclosed in a paper published by G. Deckert, et al. (Nature 1998, 392, 353-358), a wild-type leucine transporter (LeuT) was purified from Aquifex aeolicus. LeuT is expressed in E. coli C41 (DE3) transformed with pET16b encoding a C-terminal 8×His-tagged transporter (the expression plasmid was provided by Dr E. Gouaux, Vollum Institute, Portland, Oreg., USA). In summary, the […] protein was isolated and solubilized with 1.0% by weight of DDM, followed by binding the protein to a Ni^2+-NTA resin (Life Technologies, Denmark) and eluting the same with 20 mM Tris-HCl (pH 8.0), 1 mM NaCl, 199 mM KCl, 0.05% DDM, and 300 mM imidazole. Next, about 1.5 mg/ml of a protein stock was 10-fold diluted with a buffer in which DDM and imidazole are absent, but TDTs, NDTs, or DDM (control) is supplemented such that a final concentration becomes CMC+0.04% by weight or CMC+0.2% by weight. Protein samples were stored at room temperature and centrifuged at a predetermined time. To evaluate protein activity, [^3H]-Leu coupling was measured using scintillation proximity assay (SPA) (M. Quick et al., Proc. Natl, Acad. Sci. U.S.A. 2007, 104, 3603-3608). 5 μL of each protein sample dissolved in a buffer that contained 200 mM NaCl and each test compound was analyzed. SPA reaction was carried out in the presence of 20 nM [^3H]-Leu and copper chelate (His-Tag) YSi beads (both purchased from PerkinElmer, Denmark). [^3H]-Leu coupling was measured by means of a MicroBeta liquid scintillation counter (PerkinElmer).

LeuT E192C^TMR = LeuT E192C^TMR (Aquifex aeolicus, UniProt O67854, E192C); assay: Site-directed fluorescence (iodide) quenching of LeuT E192C-TMR, Stern-Volmer analysis; type: biochemical
Description: A principle of this experiment is as follows: A cysteine residue was inserted into a 192th LeuT site (E192C), followed by coupling with a thiol-reactive fluorophore (tetramethylrhodamine-5-maleimide, TMR). The prepared LeuT E192C^TMR, as TMR-coupled LeuT, is an excellent system to sensitively monitor protein structure change in response to ligand coupling. […] Due to such change, TMR fluorescence molecules exposed to an aqueous solution become closer to iodide (I^−), as a quencher dissolved in water, whereby strong fluorescence quenching is caused. TMR quenching intensity by leucine coupling may be represented by Stern-Volmer plotting and thus structural flexibility of a protein may be directly measured. Ligand bindability of the TMR-labeled transporter was measured using SPA while increasing the amount of [^3H]leucine.
In particular, structure, expression, purification, and fluorescence labeling were performed according to the following methods. In accordance with a method disclosed in a paper published by C. B. Billesbolle, et al. (J. Biol. Chem. 2015, 290, 26725-26738), a leucine transporter mutant (LeuT E192C^TMR) was produced and purification and labeling were carried out. In summary, a residue of the E192 was mutated with cysteine using QuikChange (Agilent Technologies) such that fluorescence coupling was accomplished by maleimide labeling. The LeuT mutant was expressed in E. coli C41 (DE3). A membrane of DE3 was disrupted and LeuT was solubilized with 1% (w/v) DDM. Subsequently, LeuT solubilized with the amphipathic molecule was fixed to a Chelating Sepharose Fast Flow resin (GE Healthcare, Little Chalfont, UK), followed by washing with tetramethylrhodamine-5-maleimide (TMR, Life Technologies, Carlsbad, Calif., USA) at 4° C. for 16 hours. Subsequently, LeuT was eluted with a buffer containing 300 mM imidazole, 20 mM Tris-HCl (pH 8.0), 1 mM NaCl, 199 mM KCl, and 0.05% DDM.
Fluorescence spectroscopy was carried out according to the following method. A fluorescence-based experiment was carried out by diluting 0.5 μg ml^−1 of fluorescence-labeled LeuT with buffer A supplemented with CMC+0.04% by weight of DDM, MNG-3 or NDT-C11. Leucine was separately added to specimen aliquots of LeuT for each concentration and incubated for one hour in a room temperature shaker. Steady-state fluorescence intensities were recorded with a FluoroMax4 (Horiba Scientific, Edison, N.J., USA) at λem=572 nm and excitation source at λex=552 nm at 25° C. Quencher-titration was carried out by successive additions of small specimen aliquots containing 1 M KI into buffer A supplemented with 10 mM Na2S2O3. Fluorescence intensities (F) were corrected for sample dilution and normalized to the initial intensity (F0) of a sample. All data was analyzed by linear-(Stern-Volmer plot) or nonlinear regression in GraphPad Prism 6.0 (GraphPad Software). The degree of iodide (I^−) accessibility was obtained from the following Stern-Volmer equation: F0/F=1+Ksv×[Q], where F0/F is normalized fluorescence quenching, Ksv is a Stern-Volmer constant, and [Q] is quencher concentration. When means are calculated as a log, the means are shown as pIC50 and the [s.e.m. interval] from pIC50±s.e.m.
Values of radioligand binding constants were calculated through SPA saturation binding experiments. Values of iodide quenching-response constants and ΔKSV were calculated from a site-directed fluorescence quenching spectroscopy. The affinity (Kd) is shown as means±s.e.m and ΔKSV is shown as means [s.e.m. interval]. All data is shown as means of three to four independent experiments.

Structure (SMILES): CCCCCCCCCCCCC(CCCCCCCCCCCC)COCC(CO[C@@H]1OC(CO)[C@@H](O)C(O)C1O)(CO[C@@H]1OC(CO)[C@@H](O)C(O)C1O)CO[C@@H]1OC(CO)[C@@H](O)C(O)C1O (stereo partly shown) [NDT-C12]
- Rh (hydrodynamic radius of micelles) [1]: 3.8 ± 0.4 nm
- MelB protein solubilization effect versus temperature [2]: increase with elevating temperature
- MelB protein extraction efficiency from membrane ([2]; 90 minutes): Slightly decreased solubilization effects
- LeuT protein stabilization ability ([3H]-Leu binding) [3]: excellent

Structure (SMILES): CCCCCCCCCCCC(CCCCCCCCCCC)C(=O)NC(CO[C@@H]1OC(CO)[C@@H](O)C(O)C1O)(CO[C@@H]1OC(CO)[C@@H](O)C(O)C1O)CO[C@@H]1OC(CO)[C@@H](O)C(O)C1O (stereo partly shown) [TDT-C11]
- Rh (hydrodynamic radius of micelles) [1]: 37 ± 8.0 nm
- Amount of MelB protein dissolved ([2]; 55° C., 90 minutes): 65%

Structure (SMILES): CCCCCCCCCCC(CCCCCCCCCC)(CO[C@@H]1O[C@H](CO)[C@@H](O[C@H]2O[C@H](CO)[C@@H](O)[C@H](O)[C@H]2O)[C@H](O)[C@H]1O)CO[C@@H]1O[C@H](CO)[C@@H](O[C@H]2O[C@H](CO)[C@@H](O)[C@H](O)[C@H]2O)[C@H](O)[C@H]1O [MNG-3]
- Structural fluidity of the LeuT protein (LeuT E192C^TMR; conclusion from ΔKsv): tends to greatly limit the structural fluidity
- Δ KSV (LeuT E192C^TMR; leucine-induced change of iodide accessibility of TMR, CMC+0.04% by weight detergent, means [s.e.m. interval]): 0.4 M⁻¹

Structure (SMILES): CCCCCCCCCCC(CCCCCCCCCC)C(=O)NC(CO[C@@H]1OC(CO)[C@@H](O)C(O)C1O)(CO[C@@H]1OC(CO)[C@@H](O)C(O)C1O)CO[C@@H]1OC(CO)[C@@H](O)C(O)C1O (stereo partly shown) [TDT-C10]
- Rh (hydrodynamic radius of micelles) [1]: 4.5 ± 0.2 nm

Structure (SMILES): CCCCCCCCCCCCC(CCCCCCCCCCCC)C(=O)NC(CO[C@@H]1OC(CO)[C@@H](O)C(O)C1O)(CO[C@@H]1OC(CO)[C@@H](O)C(O)C1O)CO[C@@H]1OC(CO)[C@@H](O)C(O)C1O (stereo partly shown) [TDT-C12]
- Rh (hydrodynamic radius of micelles) [1]: 53 ± 1.2 nm
- MelB protein solubilization effect versus temperature [2]: increase with elevating temperature
- MelB protein extraction efficiency from membrane ([2]; 90 minutes): Slightly decreased solubilization effects

Other lines, results leading:

- Rh (hydrodynamic radius of micelles) [1]: 3.1 ± 0.1 nm
Structure (SMILES): CCCCCCCCCC(CCCCCCCCC)COCC(CO[C@@H]1OC(CO)[C@@H](O)C(O)C1O)(CO[C@@H]1OC(CO)[C@@H](O)C(O)C1O)CO[C@@H]1OC(CO)[C@@H](O)C(O)C1O (stereo partly shown) [NDT-C9]

- Rh (hydrodynamic radius of micelles) [1]: 3.2 ± 0.1 nm
- LeuT protein stabilization ability ([3H]-Leu binding) [3]: excellent
Structure (SMILES): CCCCCCCCCCC(CCCCCCCCCC)COCC(CO[C@@H]1OC(CO)[C@@H](O)C(O)C1O)(CO[C@@H]1OC(CO)[C@@H](O)C(O)C1O)CO[C@@H]1OC(CO)[C@@H](O)C(O)C1O (stereo partly shown) [NDT-C10]

- Rh (hydrodynamic radius of micelles) [1]: 3.4 ± 0.4 nm
Structure (SMILES): CCCCCCCCCC(CCCCCCCCC)C(=O)NC(CO[C@@H]1OC(CO)[C@@H](O)C(O)C1O)(CO[C@@H]1OC(CO)[C@@H](O)C(O)C1O)CO[C@@H]1OC(CO)[C@@H](O)C(O)C1O (stereo partly shown) [TDT-C9]
